Experimental data as given in article PMC5553193 (Journal of the American Chemical Society, 2015).
Numbering of substitutions follows the chain as printed. Values belong to the compound of their own block, whether it stands above or below them. Peptide text beside a SMILES is read from it. * marks the point of attachment. X1 = O=C(C=NOCCO[C@H]1O[C@H](CO)[C@@H](O)[C@H](O)[C@@H]1O)*

What was measured:
DC-SIGN [1] = target: T1, DC-SIGN (Homo sapiens, UniProt Q9NNX6); test: ESI-MS binding assay with DC-SIGN
T1 sequence (Q9NNX6 1-404): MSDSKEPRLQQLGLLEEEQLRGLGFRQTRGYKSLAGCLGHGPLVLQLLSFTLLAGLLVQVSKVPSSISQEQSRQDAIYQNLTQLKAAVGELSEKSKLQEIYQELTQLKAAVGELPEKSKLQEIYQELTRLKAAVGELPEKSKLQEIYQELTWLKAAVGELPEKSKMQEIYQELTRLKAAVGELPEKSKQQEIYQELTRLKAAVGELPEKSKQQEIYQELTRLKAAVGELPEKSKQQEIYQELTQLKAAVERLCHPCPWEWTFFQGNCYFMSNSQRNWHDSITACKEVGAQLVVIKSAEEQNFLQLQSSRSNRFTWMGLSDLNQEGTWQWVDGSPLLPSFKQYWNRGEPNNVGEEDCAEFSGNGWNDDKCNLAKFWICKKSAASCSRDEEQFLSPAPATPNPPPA

ConA [2] = target: T2, ConA (Canavalia ensiformis, UniProt P02866); assay type: binding
LcH = target: T3, LcH (Lens culinaris, UniProt P02870); test: ITC with LcH; assay type: binding
T3 sequence (P02870 31-211 limits assumed): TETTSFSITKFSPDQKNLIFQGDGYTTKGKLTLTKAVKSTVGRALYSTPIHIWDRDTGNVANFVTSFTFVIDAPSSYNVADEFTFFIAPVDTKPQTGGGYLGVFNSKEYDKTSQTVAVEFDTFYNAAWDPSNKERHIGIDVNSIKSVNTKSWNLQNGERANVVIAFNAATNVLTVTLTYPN
T3 sequence (P02870 218-269 limits assumed): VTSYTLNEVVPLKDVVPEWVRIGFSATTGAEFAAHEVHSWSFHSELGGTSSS

PSA = target: T4, PSA (Pisum sativum, UniProt P02867); test: ITC with PSA; assay type: binding
T4 sequence (P02867 31-211 limits assumed): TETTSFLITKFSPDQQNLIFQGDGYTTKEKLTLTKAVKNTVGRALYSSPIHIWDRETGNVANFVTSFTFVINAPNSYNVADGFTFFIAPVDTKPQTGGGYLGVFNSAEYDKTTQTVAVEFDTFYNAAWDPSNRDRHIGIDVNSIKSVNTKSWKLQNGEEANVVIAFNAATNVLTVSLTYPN
T4 sequence (P02867 218-269 limits assumed): T3 sequence (P02870 218-269 limits assumed) with N7S, E8D, P11S, F32Y, H38L, G47S

ConA [3] = target: T2, ConA; conditions: read-out: KD with ConA; literature value; cited from earlier work
DC-SIGN [4] = target: T1, DC-SIGN; conditions: read-out: KD with DC-SIGN; literature value; cited from earlier work

enhanced affinity for DC-SIGN (DC-SIGN [1]): enhanced affinity
SMILES: NC(=O)[C@H](CC(=O)O)NC(=O)[C@H](Cc1ccc(O)cc1)NC(=O)[C@H](Cc1c[nH]c2ccccc12)NC(=O)C=NOCCO[C@H]1O[C@H](CO)[C@@H](O)[C@H](O)[C@@H]1O [L20]

SMILES: CC[C@H](C)[C@H](NC(=O)[C@H](CC(N)=O)NC(=O)[C@H](CC(=O)O)NC(=O)[C@H](Cc1ccccc1)NC(=O)[C@H](CC(C)C)NC(=O)[C@H](CC(=O)O)NC(=O)[C@H](Cc1ccc(O)cc1)NC(=O)[C@H](Cc1c[nH]c2ccccc12)NC(=O)C=NOCCO[C@H]1O[C@H](CO)[C@@H](O)[C@H](O)[C@@H]1O)C(=O)N[C@@H](CC(N)=O)C(=O)N[C@@H](CO)C(N)=O [L30, Man-WYDLFDNINS] (X1-WYDLFDNINS-NH2; N-terminus assumed)
fold enhancement in affinity (lower KD) over MeMan (ConA [2]): 33 fold

SMILES: CC(C)C[C@H](NC(=O)[C@H](CC(=O)O)NC(=O)[C@H](Cc1ccc(O)cc1)NC(=O)[C@H](Cc1c[nH]c2ccccc12)NC(=O)C=NOCCO[C@H]1O[C@H](CO)[C@@H](O)[C@H](O)[C@@H]1O)C(=O)N[C@@H](Cc1ccccc1)C(N)=O [L37, Man-WYDLF] (X1-WYDLF-NH2; N-terminus assumed)
fold enhancement of binding of monosaccharide moiety by peptide fragment (ConA [2]; ITC): 35 fold | fold enhancement of binding of monosaccharide moiety by peptide fragment (LcH): 2 fold | fold enhancement of binding of monosaccharide moiety by peptide fragment (PSA): 2 fold

SMILES: OC[C@H]1O[C@H](OC[C@H]2O[C@H](O)[C@@H](O)[C@@H](O[C@H]3O[C@H](CO)[C@@H](O)[C@H](O)[C@@H]3O)[C@@H]2O)[C@@H](O)[C@@H](O)[C@@H]1O [Man3, α-Man-(1→3)-[α-Man-(1→6)]-α-Man]
Kd (ConA [3]): 2.6 µM | Kd (DC-SIGN [4]): 590 µM
